Numbers after ± are expanded uncertainties.
Conditions: Liquid, Vibrating tube method

CCCC[n+]1ccn(C)c1.O=S(=O)([N-]S(=O)(=O)C(F)(F)F)C(F)(F)F
Conditions | mass density [kg/m3]
345.15 K, 101.33 kPa | 1392.16 ± 11
346.15 K, 101.33 kPa | 1391.23 ± 11
347.15 K, 101.33 kPa | 1390.31 ± 11
348.15 K, 101.33 kPa | 1389.38 ± 11
349.15 K, 101.33 kPa | 1388.46 ± 11
350.15 K, 101.33 kPa | 1387.54 ± 11
351.15 K, 101.33 kPa | 1386.61 ± 11
352.15 K, 101.33 kPa | 1385.69 ± 11
353.15 K, 100 kPa | 1385.8 ± 11
353.15 K, 101.33 kPa | 1384.77 ± 11
353.15 K, 250 kPa | 1385.9 ± 11
353.15 K, 500 kPa | 1386.1 ± 11
353.15 K, 1000 kPa | 1386.5 ± 11
353.15 K, 2000 kPa | 1387.4 ± 11
353.15 K, 5000 kPa | 1390.1 ± 11
353.15 K, 10000 kPa | 1394.3 ± 11
353.15 K, 14990 kPa | 1398.4 ± 11
353.15 K, 20010 kPa | 1402.5 ± 11
353.15 K, 24990 kPa | 1406.3 ± 11
353.15 K, 30010 kPa | 1410.2 ± 11
353.15 K, 34990 kPa | 1413.8 ± 11
353.15 K, 40000 kPa | 1417.5 ± 11
353.15 K, 45000 kPa | 1421 ± 11
353.15 K, 50000 kPa | 1424.6 ± 12
353.15 K, 54990 kPa | 1427.9 ± 12
353.15 K, 60010 kPa | 1431.3 ± 12
354.15 K, 101.33 kPa | 1383.85 ± 11
355.15 K, 101.33 kPa | 1382.93 ± 11
356.15 K, 101.33 kPa | 1382.01 ± 11
357.15 K, 101.33 kPa | 1381.09 ± 11
358.15 K, 101.33 kPa | 1380.17 ± 11
359.15 K, 101.33 kPa | 1379.25 ± 11
360.15 K, 101.33 kPa | 1378.34 ± 11
361.15 K, 101.33 kPa | 1377.42 ± 11
362.15 K, 101.33 kPa | 1376.5 ± 11
363.15 K, 100 kPa | 1376.6 ± 11
363.15 K, 101.33 kPa | 1375.58 ± 11
363.15 K, 250 kPa | 1376.7 ± 11
363.15 K, 500 kPa | 1376.9 ± 11
363.15 K, 1010 kPa | 1377.4 ± 11
363.15 K, 4990 kPa | 1381 ± 11
363.15 K, 10010 kPa | 1385.4 ± 11
363.15 K, 14990 kPa | 1389.6 ± 11
363.15 K, 20010 kPa | 1393.8 ± 11
363.15 K, 25000 kPa | 1397.8 ± 11
363.15 K, 30010 kPa | 1401.7 ± 11
363.15 K, 34990 kPa | 1405.5 ± 11
363.15 K, 40000 kPa | 1409.2 ± 11
363.15 K, 45010 kPa | 1412.8 ± 11
363.15 K, 50000 kPa | 1416.4 ± 11
363.15 K, 54990 kPa | 1419.9 ± 11
363.15 K, 60000 kPa | 1423.4 ± 12
373.15 K, 100 kPa | 1367.3 ± 11
373.15 K, 250 kPa | 1367.4 ± 11
373.15 K, 500 kPa | 1367.7 ± 11
373.15 K, 1010 kPa | 1368.2 ± 11
373.15 K, 2000 kPa | 1369.1 ± 11
373.15 K, 4990 kPa | 1371.9 ± 11
373.15 K, 10000 kPa | 1376.5 ± 11
373.15 K, 14990 kPa | 1380.8 ± 11
373.15 K, 20000 kPa | 1385.1 ± 11
373.15 K, 24990 kPa | 1389.2 ± 11
373.15 K, 30010 kPa | 1393.3 ± 11
373.15 K, 34970 kPa | 1397.1 ± 11
373.15 K, 40000 kPa | 1401 ± 11
373.15 K, 45000 kPa | 1404.7 ± 11
373.15 K, 50000 kPa | 1408.4 ± 11
373.15 K, 54990 kPa | 1411.9 ± 11
373.15 K, 60010 kPa | 1415.5 ± 11
393.15 K, 100 kPa | 1348.8 ± 11
393.15 K, 250 kPa | 1348.9 ± 11
393.15 K, 500 kPa | 1349.2 ± 11
393.15 K, 1000 kPa | 1349.7 ± 11
393.15 K, 2000 kPa | 1350.7 ± 11
393.15 K, 4990 kPa | 1353.7 ± 11
393.15 K, 10000 kPa | 1358.6 ± 11
393.15 K, 15000 kPa | 1363.2 ± 11
393.15 K, 20010 kPa | 1367.8 ± 11
393.15 K, 25000 kPa | 1372.1 ± 11
393.15 K, 30010 kPa | 1376.4 ± 11
393.15 K, 35000 kPa | 1380.5 ± 11
393.15 K, 40000 kPa | 1384.6 ± 11
393.15 K, 45000 kPa | 1388.5 ± 11
393.15 K, 50000 kPa | 1392.4 ± 11
393.15 K, 55020 kPa | 1396.2 ± 11
393.15 K, 60000 kPa | 1399.9 ± 11
413.15 K, 100 kPa | 1330 ± 11
413.15 K, 250 kPa | 1330.2 ± 11
413.15 K, 500 kPa | 1330.5 ± 11
413.15 K, 1000 kPa | 1331 ± 11
413.15 K, 2000 kPa | 1332.1 ± 11
413.15 K, 4990 kPa | 1335.3 ± 11
413.15 K, 10000 kPa | 1340.6 ± 11
413.15 K, 14990 kPa | 1345.6 ± 11
413.15 K, 20010 kPa | 1350.5 ± 11
413.15 K, 25000 kPa | 1355.1 ± 11
413.15 K, 30000 kPa | 1359.7 ± 11
413.15 K, 34990 kPa | 1364 ± 11
413.15 K, 40000 kPa | 1368.4 ± 11
413.15 K, 45000 kPa | 1372.5 ± 11
413.15 K, 50000 kPa | 1376.6 ± 11
413.15 K, 55000 kPa | 1380.6 ± 11
413.15 K, 60000 kPa | 1384.5 ± 11
433.15 K, 100 kPa | 1311 ± 10
433.15 K, 250 kPa | 1311.1 ± 10
433.15 K, 500 kPa | 1311.4 ± 10
433.15 K, 1000 kPa | 1312 ± 10
433.15 K, 2000 kPa | 1313.2 ± 10
433.15 K, 4990 kPa | 1316.7 ± 10
433.15 K, 10000 kPa | 1322.4 ± 11
433.15 K, 15000 kPa | 1327.8 ± 11
433.15 K, 20010 kPa | 1333 ± 11
433.15 K, 25010 kPa | 1338 ± 11
433.15 K, 30010 kPa | 1342.9 ± 11
433.15 K, 34990 kPa | 1347.5 ± 11
433.15 K, 40000 kPa | 1352.1 ± 11
433.15 K, 45000 kPa | 1356.6 ± 11
433.15 K, 50000 kPa | 1360.9 ± 11
433.15 K, 55000 kPa | 1365.1 ± 11
433.15 K, 60000 kPa | 1369.3 ± 11
453.15 K, 100 kPa | 1291.4 ± 10
453.15 K, 250 kPa | 1291.7 ± 10
453.15 K, 500 kPa | 1292 ± 10
453.15 K, 1000 kPa | 1292.6 ± 10
453.15 K, 1950 kPa | 1294 ± 10
453.15 K, 4990 kPa | 1297.7 ± 10
453.15 K, 10000 kPa | 1303.9 ± 10
453.15 K, 15000 kPa | 1309.7 ± 10
453.15 K, 20000 kPa | 1315.3 ± 10
453.15 K, 25000 kPa | 1320.7 ± 11
453.15 K, 30010 kPa | 1325.9 ± 11
453.15 K, 35000 kPa | 1330.9 ± 11
453.15 K, 40000 kPa | 1335.9 ± 11
453.15 K, 45010 kPa | 1340.6 ± 11
453.15 K, 50000 kPa | 1345.3 ± 11
453.15 K, 54990 kPa | 1349.8 ± 11
453.15 K, 60000 kPa | 1354.3 ± 11
473.15 K, 100 kPa | 1271.4 ± 10
473.15 K, 250 kPa | 1271.7 ± 10
473.15 K, 500 kPa | 1272 ± 10
473.15 K, 990 kPa | 1272.7 ± 10
473.15 K, 2000 kPa | 1274.2 ± 10
473.15 K, 4990 kPa | 1278.2 ± 10
473.15 K, 10000 kPa | 1285 ± 10
473.15 K, 15000 kPa | 1291.2 ± 10
473.15 K, 20010 kPa | 1297.4 ± 10
473.15 K, 24990 kPa | 1303.2 ± 10
473.15 K, 30010 kPa | 1308.9 ± 10
473.15 K, 34990 kPa | 1314.2 ± 10
473.15 K, 40010 kPa | 1319.6 ± 11
473.15 K, 45000 kPa | 1324.7 ± 11
473.15 K, 50000 kPa | 1329.7 ± 11
473.15 K, 55000 kPa | 1334.5 ± 11
473.15 K, 60000 kPa | 1339.3 ± 11
